Converted amounts (≈) assume the structure as drawn. Read-outs that look alike come from different tables or passages of the source.

Test [1] deals with E. coli ATCC 25922. Put plainly: Microbroth dilution MIC (CLSI). Format: cell-based. The settings on record: Escherichia coli, ATCC25922; E. coli ATCC 25922; read-out: MIC. On the procedure:
(§1) The chemical entities described in the present invention were assessed for their antimicrobial activity using a microbroth dilution assay as recommended by the CLSI (Methods for Dilution Antimicrobial Susceptibility Tests for Bacteria That Grow Aerobically, and Methods for Antimicrobial Susceptibility Testing of Anaerobic Bacteria, Clinical and Laboratory Standards Institute, Document M07-A8, and M11-A8, Wayne, PA 19087, USA, 2012.). Compounds were dissolved by using 100% DMSO. Serial two-fold dilutions of each compound were made by using 100% DMSO as the diluent.
(§2) A library of Gram-negative and Gram-positive microbes and their drug- and multidrug-resistant variants were employed as test organisms. The MIC (minimum inhibitory concentration) was determined as the lowest concentration of an individual drug that lead to no visible growth.

Test [2] has as its system S. aureus ATCC 29213. Put plainly: Microbroth dilution MIC (CLSI). The settings on record: Staphylococcus aureus, ATCC29213; S. aureus ATCC 29213; read-out: MIC. The class given is cell-based. On the procedure: as §1, §2
On the technique in general: Broth dilution looks for growth in wells or tubes with falling amounts of substance.

Test [3] has as its system E. faecalis ATCC 29212. The experiment in a line: Microbroth dilution MIC (CLSI). The class given is cell-based. The settings on record: Enterococcus faecalis, ATCC29212; E. faecalis ATCC 29212; read-out: MIC. On the procedure: as §1, §2
The subject of test [4] is S. aureus ATCC 43300 (MRSA). Put plainly: Microbroth dilution MIC (CLSI). The class given is cell-based. To be noted: Staphylococcus aureus. As for the experimental part:
as §1, §2

Test [5] relates to P. aeruginosa ATCC 27853. The experiment in a line: Microbroth dilution MIC (CLSI). The class given is cell-based. The settings on record: Pseudomonas aeruginosa, ATCC27853; P. aeruginosa ATCC 27853; read-out: MIC. As for the experimental part: as §1, §2
The test system of test [6] is E. spp. cloacae ATCC 13047. Put plainly: Microbroth dilution MIC (CLSI). The class given is cell-based. To be noted: Enterobacter cloacae, ATCC13047; E. spp. cloacae ATCC 13047; read-out: MIC. As for the experimental part: as §1, §2
Test [7] deals with K. pneumoniae ATCC 10031. Put plainly: Microbroth dilution MIC (CLSI). The class given is cell-based. To be noted: Klebsiella pneumoniae, ATCC10031; K. pneumoniae ATCC 10031; read-out: MIC. As for the experimental part:
as §1, §2

The test system of test [8] is S. aureus ATCC 700699 (VISA). The experiment in a line: Microbroth dilution MIC (CLSI). To be noted: Staphylococcus aureus. The class given is cell-based. As for the experimental part:
as §1, §2

In test [9] the test system is E. faecium ATCC 700221. The experiment in a line: Microbroth dilution MIC (CLSI). Format: cell-based. To be noted: Enterococcus faecium, ATCC700221. As for the experimental part:
as §1, §2

Test [10] relates to A. baumannii ATCC 17978. The experiment in a line: Microbroth dilution MIC (CLSI). The class given is cell-based. The settings on record: Acinetobacter baumannii, ATCC17978; A. baumannii ATCC 17978; read-out: MIC. As for the experimental part:
as §1, §2

For test [11], the target named is T1, E. coli DNA gyrase (Escherichia coli, UniProt P0AES6).
T1 construct: purchased Inspiralis
Put plainly: biochemical. The settings on record: E. coli DNA gyrase; read-out: IC50. As for the experimental part:
Inhibitory activities for compounds of the present invention were determined on E. coli and S. aureus DNA gyrase and topoisomerase IV in an assay from Inspiralis on streptavidin-coated 96-well microtiter plates from Thermo scientific Pierce. […] After washing off the unbound oligonucleotide, the enzyme test was performed. […] Reaction solutions were incubated at 37° C. for 30 min. After that, the TF buffer (50 mM NaOAc with pH 5.0, 50 mM NaCl and 50 mM MgCl2) was added to terminate the enzymatic reaction. After additional incubation for 30 min at rt, during which biotin-oligonucleotide-plasmid triplex was formed, the unbound plasmid was washed off using TF buffer and SybrGOLD in T10 buffer (10 mM Tris HCl with pH 8.0 and 1 mM EDTA) was added. […] GraphPad Prism 6.0 software was used to calculate the IC50 values. The result is given as the average value of three independent measurements. […] Chemoth.

Where [12] appears, read: S. aureus ATCC 43300 (MRSA), read-out: MIC.
The mark [13] stands for this setting: S. aureus ATCC 700699 (VISA), read-out: MIC.
[14] abbreviates: E. faecium ATCC 700221, read-out: MIC.

A word on the MIC: it is the least concentration at which growth counts as inhibited. As usually defined, the IC50 is the concentration that inhibits the measured activity by half. Take `Cc1[nH]c(C(=O)Nc2ccc(C(=O)O)cc2N2CCN(c3ccccc3)CC2)c(Cl)c1Cl` [Example 16, 4-(3,4-Dichloro-5-methyl-1H-pyrrole-2-carboxamido)-3-(4-phenylpiperazin-1-yl)benzoic acid]: the MIC in test [1], in [2], in test [3], in test [4] (setting [12]), in [5] and in test [6] was > 64 µg/mL each time. The minimum inhibitory concentration (MIC) in [7], in test [8] (setting [13]), in [9] (setting [14]) and in [10] was > 64 µg/mL in each case. For the same molecule, the IC50 in test [11] is 199 nM.
As to `Cc1[nH]c(C(=O)Nc2ccc(-n3nn[nH]c3=O)cc2N2CCN(c3ccccc3)CC2)c(Cl)c1Cl` [Example 24, 3,4-Dichloro-5-methyl-N-(4-(5-oxo-4,5-dihydro-1H-tetrazol-1-yl)-2-(4-phenylpiperazin-1-yl)phenyl)-1H-pyrrole-2-carboxamide], the MIC was ≥ 32 µg/mL in [1]; ≥ 32 µg/mL in [2]; 0.5 µg/mL (≈ 0.974 µM) in [3]; ≥ 32 µg/mL in [4] (setting [12]); ≥ 32 µg/mL in test [5]; ≥ 32 µg/mL in test [6]. In addition, the MIC in [7] is ≥ 32 µg/mL; in [8] (setting [13]) it was 0.5 µg/mL (≈ 0.974 µM); in [9] (setting [14]) it was 0.5 µg/mL (≈ 0.974 µM); in test [10], ≥ 32 µg/mL. Moreover, the concentration for half-maximal inhibition (IC50) in test [11] was found to be 7.8 nM.
Consider `Cc1[nH]c(C(=O)Nc2ccc(-c3n[nH]c(=O)o3)cc2NC2CCNCC2)c(Cl)c1Cl.Cl` [Example 19, 4-((2-(3,4-Dichloro-5-methyl-1H-pyrrole-2-carboxamido)-5-(5-oxo-4,5-dihydro-1,3,4-oxadiazol-2-yl)phenyl)amino)piperidin-1-ium chloride], for which the minimum inhibitory concentration (MIC) in test [1], in test [2], in test [3], in test [4] (setting [12]), in [5] and in test [6] was > 64 µg/mL throughout. The MIC in [7] is 2 µg/mL; in test [8] (setting [13]), > 64 µg/mL; in test [9] (setting [14]), > 64 µg/mL; in test [10] it was > 64 µg/mL. Further, the IC50 in [11] came out at 4.4 nM.
On to `Cc1[nH]c(C(=O)Nc2ccc(-c3noc(=O)[nH]3)cc2N2CCN(c3ccccc3)CC2)c(Cl)c1Cl` [Example 7, 3,4-Dichloro-5-methyl-N-(4-(5-oxo-4,5-dihydro-1,2,4-oxadiazol-3-yl)-2-(4-phenylpiperazin-1-yl)phenyl)-1H-pyrrole-2-carboxamide], for which the MIC was > 64 µg/mL in [1]; 4 µg/mL (≈ 7.79 µM) in test [2]; 0.125 µg/mL (≈ 0.243 µM) in test [3]; 0.0625 µg/mL (≈ 0.122 µM) in test [4] (setting [12]); > 64 µg/mL in test [5]; > 64 µg/mL in test [6]. Also, the MIC is > 64 µg/mL in test [7], 2 µg/mL (≈ 3.9 µM) in test [8] (setting [13]), 4 µg/mL (≈ 7.79 µM) in [9] (setting [14]) and > 64 µg/mL in [10]. The IC50 in [11] turned out to be 109 nM.
For `Cc1[nH]c(C(=O)Nc2ccc(-c3noc(=O)[nH]3)cc2N2CCCC2)c(Cl)c1Cl` [Example 6, 3,4-Dichloro-5-methyl-N-(4-(5-oxo-4,5-dihydro-1,2,4-oxadiazol-3-yl)-2-(pyrrolidin-1-yl)phenyl)-1H-pyrrole-2-carboxamide], the MIC in [1] was > 64 µg/mL; in test [2], > 64 µg/mL; in test [3], < 0.0312 µg/mL; in test [4] (setting [12]) it was 0.5 µg/mL (≈ 1.18 µM); in [5], > 64 µg/mL; in [6] it was > 64 µg/mL. Further, the MIC in test [7] is > 64 µg/mL; in [8] (setting [13]) it was < 0.0313 µg/mL; in test [9] (setting [14]) it was 0.0625 µg/mL (≈ 0.148 µM); in test [10] it was > 64 µg/mL. Also, the IC50 in [11] came to 12.6 nM.
For `Cc1[nH]c(C(=O)Nc2ccc(C(=O)O)cc2NC2CCNCC2)c(Cl)c1Cl.Cl` [Example 15, 4-((5-Carboxy-2-(3,4-dichloro-5-methyl-1H-pyrrole-2-carboxamido)phenyl)amino)piperidin-1-ium chloride], the MIC in test [1], in test [2], in test [3], in test [4] (setting [12]), in [5] and in test [6] was > 64 µg/mL throughout. Further, the MIC in test [7], in test [8] (setting [13]), in [9] (setting [14]) and in [10] was > 64 µg/mL throughout. Also, the IC50 in test [11] is 532 nM.
In the case of `Cc1[nH]c(C(=O)Nc2ccc(-c3noc(=O)[nH]3)cc2N2CCNCC2)c(Cl)c1Cl` [Example 5, 4-(2-(3,4-Dichloro-5-methyl-1H-pyrrole-2-carboxamido)-5-(5-oxo-4,5-dihydro-1,2,4-oxadiazol-3-yl)phenyl)piperazin-1-ium chloride], the MIC in test [1], in test [2], in [3], in test [4], in test [5] and in test [6] was > 64 µg/mL throughout. The MIC in [7], in test [8], in test [9] and in [10] was > 64 µg/mL each time. Besides, in test [11], the IC50 came to 6.07 nM.
In the case of `Cc1[nH]c(C(=O)Nc2ccc(-c3n[nH]c(=O)o3)cc2OC2CCNC2)c(Cl)c1Cl.Cl` (centres unmarked) [Example 26, 3-(2-(3,4-Dichloro-5-methyl-1H-pyrrole-2-carboxamido)-5-(5-oxo-4,5-dihydro-1,3,4-oxadiazol-2-yl)phenoxy)pyrrolidin-1-ium chloride], the MIC in test [1], in test [2], in [3], in [4] (setting [12]), in test [5] and in test [6] was ≥ 32 µg/mL in each case. In addition, the MIC in test [7], in test [8] (setting [13]), in test [9] (setting [14]) and in [10] was ≥ 32 µg/mL in each case. Moreover, the IC50 in test [11] turned out to be 3.54 nM.
`Cc1[nH]c(C(=O)Nc2ccc(-c3n[nH]c(=O)o3)cc2OCC2CCCNC2)c(Cl)c1Cl.Cl` (centres unmarked) [Example 28, 3-((2-(3,4-Dichloro-5-methyl-1H-pyrrole-2-carboxamido)-5-(5-oxo-4,5-dihydro-1,3,4-oxadiazol-2-yl)phenoxy)methyl)piperidin-1-ium chloride]: the MIC in test [1], in test [2], in test [3], in [4] (setting [12]), in test [5] and in [6] was > 64 µg/mL throughout. Besides, the MIC is 0.5 µg/mL in [7], > 64 µg/mL in test [8] (setting [13]), > 64 µg/mL in test [9] (setting [14]) and > 64 µg/mL in test [10]. For the same molecule, the IC50 in test [11] stood at 0.75 nM.
As to `Cc1[nH]c(C(=O)Nc2ccc(-c3n[nH]c(=O)o3)cc2OC2CCNCC2)c(Cl)c1Cl.Cl` [Example 27, 4-(2-(3,4-Dichloro-5-methyl-1H-pyrrole-2-carboxamido)-5-(5-oxo-4,5-dihydro-1,3,4-oxadiazol-2-yl)phenoxy)piperidin-1-ium chloride], the MIC in test [1] was ≥ 32 µg/mL; in test [2], 16 µg/mL; in test [3], > 64 µg/mL; in test [4] (setting [12]), 8 µg/mL; in [5], ≥ 32 µg/mL; in test [6] it was ≥ 32 µg/mL. Moreover, the MIC is 0.125 µg/mL in test [7], ≥ 64 µg/mL in test [8] (setting [13]), 8 µg/mL in [9] (setting [14]) and ≥ 32 µg/mL in test [10]. Moreover, the IC50 in test [11] stood at 2.26 nM.

The record behind these values is patent publication US20250002455A1, “NEW N-PHENYLPYRROLAMIDE INHIBITORS OF DNA GYRASE AND TOPOISOMERASE IV WITH ANTIBACTERIAL ACTIVITY” (priority 2020, published 2025).
